Experimental findings from US4847387A, “Antibiotic compounds DC-92B and DC-92D” (Kyowa Hakko Kogyo Co., Ltd., priority 1986, dated 1989) are described below.

≈ marks a conversion by molar mass, not a printed value. Where two headings read alike, the source gives them in different places.

Data set [1] relates to Sarcoma 180 ascites tumor. Briefly: Therapeutic effect against Sarcoma 180 tumor. The data set is classed as in vivo, male ddY-strain mice. The settings on record: ten days after implantation. The method, then: Six male ddY-strain mice each having a weight of about 20 g were used for each group as test animals, and 5×10^6 cells of Sarcoma 180 ascites tumor were implanted subcutaneously into the animals at the axilla. 0.2 ml of phosphate buffered saline (hereinafter referred to as PBS) containing DC-92B or DC-92D at various concentrations was administered once intraperitoneally 24 hours after implantation. The composition of PBS was 0.8 g/dl NaCl, 0.02 g/dl KCl, […] Na2 HPO4 and 0.02 g/dl KH2 PO4 (pH 7.2).
(§1) For comparison, 0.2 ml of PBS containing mitomycin C was intraperitoneally administered to a group of animals 24 hours after tumor implantation.

For data set [2], the system named is lymphocytic leukemia P388 tumor. Briefly: Therapeutic effect against lymphocytic leukemia P388 tumor. The data set is classed as in vivo, male CDF1 mice. As to the method: Five male CDF1 mice each having a weight of about 22 g were used for each group as test animals, and 1×10^6 cells of lymphocytic leukemia P388 tumor were implanted intraperitoneally into the test animals. 0.2 ml of PBS containing DC-92B or DC-92D was administered once intraperitoneally 24 hours after implantation.
as §1
*Continuous administration for five days

A short description of the next data set: in vivo. The settings on record: mouse, ip, mice, intraperitoneal administration, read-out: acute toxicity value (LD50).
A further data set is described as follows: Basicity. The data set is classed as physicochemical.
The subject of a further data set is Escherichia coli ATCC 26. Briefly: Minimum inhibitory concentration, agar dilution method. The data set is classed as cell-based. As to the method:
(§2) (A) Minimum Inhibitory Concentration Against Various Bacteria (MIC: μg/ml)
(§3) The antibacterial activity was evaluated by the agar dilution method using a medium (pH 7) prepared by dissolving 3 g of Bacto-Tryptone (Difco Laboratories), 3 g of meat extract, 1 g of yeast extract, 1 g of glucose and 16 g of agar in 1 liter of water.

The test system of data set [3] is Salmonella typhosa ATCC 9992. The description is as above. It counts as cell-based. The settings on record: Salmonella enterica. As to the method:
as §2, §3

Data set [4] has as its system Klebsiella pneumoniae ATCC 10031. Described as above. The data set is classed as cell-based. As to the method: as §2, §3
The subject of data set [5] is Staphylococcus aureus ATCC 6538P. The description is as above. The data set is classed as cell-based. The settings on record: ATCC6538P, pH 7, read-out: Minimum Inhibitory Concentration (MIC). The method, then: as §2, §3
Data set [6] has as its system Bacillus subtilis No. 10707. The data set is described as above. It counts as cell-based. The method, then: as §2, §3
Data set [7] deals with Shigella sonnei ATCC 9290. The data set is described as above. It counts as cell-based. The method, then:
as §2, §3

Where [8] appears, read: 6.0 mg/kg, i.p. 24 h after implantation.
Where [9] appears, read: methanol, ethanol, acetone, chloroform, ethyl acetate, toluene and dimethylsulfoxide.
[10] abbreviates: 0.31 mg/kg, once i.p. 24 h after implantation.
Where [11] appears, read: 0.0125 mg/kg, continuous administration for five days.
Setting [12] is: 0.025 mg/kg, continuous administration for five days.
Setting [13] is: 0.15 mg/kg, once i.p. 24 h after implantation.
Where [14] appears, read: 1.563 mg/kg, once i.p. 24 h after implantation.
The mark [15] stands for this setting: 3.125 mg/kg, once i.p. 24 h after implantation.
Where [16] appears, read: 6.25 mg/kg, once i.p. 24 h after implantation.
Where [17] appears, read: 0.39 mg/kg, once i.p. 24 h after implantation.
Setting [18] is: 0.78 mg/kg, once i.p. 24 h after implantation.
Where [19] appears, read: 1.56 mg/kg, once i.p. 24 h after implantation.
Setting [20] is: 3.13 mg/kg, once i.p. 24 h after implantation.

Turning to `CO[C@@]12[C@H](COC(N)=O)C3=C(C(=O)C(C)=C(N)C3=O)N1C[C@@H]1N[C@@H]12` [Mitomycin C, reference compound], in data set [1] (setting [8]), the Average tumor volume is recorded as 743.8 mm^3 and the “T/C (average tumor volume)” value was determined as 0.35. In [2] (setting [8]), the “Increased Life Span (T/C)” value is 1.63 and the “Survival days (mean)” value was found to be 17.9 days.

A word on the LD50: it is the dose at which mortality reaches 50%. As for `Cc1cc2c(c3oc(C4(C)OC4C4OC4(C)C)cc(=O)c13)C(=O)c1c(O)c(C3CC(C)(N(C)C)C(O)C(C)(O)O3)cc(C3CC(N(C)C)C(O)C(C)O3)c1C2=O` (stereo not drawn) [DC-92B], the Solubility entry is listed as “Soluble” in the data set “Solubility” (setting [9]); “sparingly soluble” in the data set “Solubility” (water and hexane). Moreover, the 50% lethal dose (LD50) in “in vivo” is about 0.31 mg/kg. For the same molecule, the Basicity result in “Basicity” was “Weakly basic”. Besides, the Average tumor volume in data set [1] (setting [10]) came out at 828.6 mm^3. In data set [1] (setting [10]), the “T/C (average tumor volume)” value was found to be 0.39. The “Increased Life Span (T/C)” value in data set [2] (setting [11]) came to 1.41; in data set [2] (setting [12]), 1.41; in [2] (setting [13]), 1.47. The “Survival days (mean)” value in [2] (setting [11]) was 15.5 days; in [2] (setting [12]) it was 15.5 days; in data set [2] (setting [13]), 16.2 days. The MIC was determined as 10 µg/mL (≈ 12.9 µM) with Escherichia coli ATCC 26 (ATCC26, pH 7, read-out: Minimum Inhibitory Concentration (MIC)); 40 µg/mL (≈ 51.5 µM) in [3] (pH 7, read-out: Minimum Inhibitory Concentration (MIC)); 2.5 µg/mL (≈ 3.22 µM) in [4] (ATCC10031, pH 7, read-out: Minimum Inhibitory Concentration (MIC)); 0.04 µg/mL (≈ 0.0515 µM) in data set [5]; 0.15 µg/mL (≈ 0.193 µM) in [6] (NO.10707, pH 7, read-out: Minimum Inhibitory Concentration (MIC)); 10 µg/mL (≈ 12.9 µM) in data set [7] (ATCC9290, pH 7, read-out: Minimum Inhibitory Concentration (MIC)).

Turning to `Cc1cc2c(c3oc(C4(C)OC4C4OC4(C)C)cc(=O)c13)C(=O)c1c(O)c(C3CC(C)(N(C)C)C(O)C(C)(O)O3)cc(C3=CC(N(C)C)C(O)C(C)O3)c1C2=O` (stereo not drawn) [DC-92D], the Solubility result in “Solubility” (setting [9]) is “Soluble”; in “Solubility” (water and hexane) it was “sparingly soluble”. The LD50 in the data set “in vivo” is about 5.6 mg/kg. Moreover, the Basicity entry in the data set “Basicity” is given as “Weakly basic”. The Average tumor volume turned out to be 1444.8 mm^3 in [1] (setting [14]), 679.9 mm^3 in [1] (setting [15]) and 764.9 mm^3 in data set [1] (setting [16]). Also, the “T/C (average tumor volume)” value in data set [1] (setting [14]) stood at 0.68; in data set [1] (setting [15]), 0.32; in [1] (setting [16]) it was 0.36. Further, the “Increased Life Span (T/C)” value in data set [2] (setting [17]) is 1.04; in [2] (0.75 mg/kg, continuous administration for five days) it was 1.58; in data set [2] (setting [18]), 1.17; in [2] (setting [19]) it was 1.15; in [2] (setting [20]), 0.69. The “Survival days (mean)” value stood at 11.4 days in [2] (setting [17]); 17.4 days in data set [2] (0.75 mg/kg, 120 h); 12.9 days in [2] (setting [18]); 12.7 days in data set [2] (setting [19]); 7.6 days in [2] (setting [20]). The MIC in the data set on Escherichia coli ATCC 26 (ATCC26, agar dilution, pH 7, read-out: Minimum Inhibitory Concentration (MIC)) was found to be 100 µg/mL (≈ 129 µM); in [3] (agar dilution, pH 7, read-out: Minimum Inhibitory Concentration (MIC)) it was 100 µg/mL (≈ 129 µM); in [4] (ATCC10031, agar dilution, pH 7, read-out: Minimum Inhibitory Concentration (MIC)), 25 µg/mL (≈ 32.3 µM); in data set [5] (agar dilution), 1.5 µg/mL (≈ 1.94 µM); in data set [6] (NO.10707, agar dilution, pH 7, read-out: Minimum Inhibitory Concentration (MIC)), 3 µg/mL (≈ 3.87 µM); in data set [7] (ATCC9290, agar dilution, pH 7, read-out: Minimum Inhibitory Concentration (MIC)), 100 µg/mL (≈ 129 µM).
